Data taken from ChEMBL document CHEMBL1201862, “PubChem BioAssay data set” (2004).
Calls of active or inactive are those of the source.

How the values were obtained:
[1] = target: Voltage-gated inwardly rectifying potassium channel KCNH2 (Homo sapiens, UniProt Q12809); conditions: Potency;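 also: confirmatory quantitative high-throughput screen measuring inhibition of hERG channel activity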
Albumin = Albumin (Bos taurus, UniProt P02769); assay: Counterscreen for inhibitors of T-cell receptor (TCR)-CD3 interaction: Fluorescence-based biochemical high throughput dose response assay to identify inhibitors of T-cell receptor (TCR)-CD3 interaction using a TAMRA-labeled BSA probe.; type: functional
[2] = HEK-293T cell viability reduction – luminescence, B-cell screen hits, cytotoxicity control for BCR NF-kB inhibitor project, dose response (AID 489021); type: functional, cell-based;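 also: HEK-293T cells carrying an NF-kB luciferase reporter; cells exposed to compound for about 14 hours before viability readout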
Paired box protein Pax-8 = Paired box protein Pax-8 (Homo sapiens, UniProt Q06710); assay: PAX8 transcriptional activity inhibition in RMG-I – RMG-I cells, luciferase, cherry-pick, dose response (AID 687027); type: functional, cell-based;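 also: luciferase reporter driven by Pax8 target thyroperoxidase promoter measured by SteadyGlo luminescence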
[3] = target: T1, Heat shock factor protein 1 (Mus musculus, UniProt P38532); assay: decrease of HSF1-responsive luciferase luminescence – cell-based, NIH3T3, dose retest, confirmation (AID 2382); type: functional;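 also: NIH3T3 fibroblasts with HSF1-driven luciferase reporter stressed by proteasome inhibitor MG132; luminescence from HSF1-driven luciferase expression after 8 hours of MG132 stress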
T1 sequence (P38532 whole entry): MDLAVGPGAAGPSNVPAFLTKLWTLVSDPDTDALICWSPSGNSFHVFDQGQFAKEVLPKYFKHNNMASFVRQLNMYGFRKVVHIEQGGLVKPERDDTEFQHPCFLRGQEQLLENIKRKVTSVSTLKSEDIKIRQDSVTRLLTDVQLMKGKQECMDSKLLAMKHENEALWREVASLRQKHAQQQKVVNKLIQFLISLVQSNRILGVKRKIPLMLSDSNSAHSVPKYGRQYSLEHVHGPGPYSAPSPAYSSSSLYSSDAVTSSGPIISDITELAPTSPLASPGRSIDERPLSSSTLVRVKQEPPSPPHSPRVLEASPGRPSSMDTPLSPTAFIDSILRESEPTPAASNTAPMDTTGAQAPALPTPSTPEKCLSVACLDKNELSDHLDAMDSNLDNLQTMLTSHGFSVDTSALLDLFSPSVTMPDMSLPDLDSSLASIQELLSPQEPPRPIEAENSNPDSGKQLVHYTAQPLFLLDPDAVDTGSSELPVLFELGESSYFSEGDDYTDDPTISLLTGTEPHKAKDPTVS

[4] = Luminescence Cell-Based Dose Retest to Confirm Inhibitors of Cancer Stem Cells. [Related pubchem assays (depositor defined):AID2717, AID2721]; type: functional; conditions: Homo sapiens
HEK293 = assay: EBV LMP1 TES2 canonical NF-kB signalling blockers – cell-based, HEK293, luciferase, cherry-pick, dose response (AID 588343); type: functional; conditions: Homo sapiens
cells [5] = type: functional, cell-based
[6] = Trypanosoma cruzi growth suppression in host cells – NIH3T3 host cells, beta-gal luminescence, confirmation (AID 2044); type: functional, cell-based;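 also: intracellular parasites grown in NIH/3T3 mouse fibroblasts as host cells; luminescent beta-galactosidase reporter signal from transgenic T. cruzi replicating inside host cells; inhibitors lower the luminescence signal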
cells [7] = type: functional, cell-based; remark: listed apart in the source
[8] = NIH3T3 cell viability loss – ATP luminescence, mouse fibroblasts, counter-screen, dose response (AID 2010); type: functional, cell-based;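 also: cells exposed to compound for about 90 hours before reading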
Nonstructural protein 1 = Nonstructural protein 1 (Influenza A virus, UniProt Q194T2); type: functional, Influenza A virus (A/California/07/2009(H1N1))
[9] = target: T2, Microphthalmia-associated transcription factor (Homo sapiens, UniProt O75030); assay: reducers of TRPM1 reporter luminescence, concentration series – cell-based, SK-MEL-5, cherry-picked, set 3, MITF inhibitor project, dose response (AID 493073); type: functional;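 also: SK-MEL-5 melanoma cells with luciferase driven by the MITF target TRPM1 promoter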
T2 sequence (O75030 whole entry): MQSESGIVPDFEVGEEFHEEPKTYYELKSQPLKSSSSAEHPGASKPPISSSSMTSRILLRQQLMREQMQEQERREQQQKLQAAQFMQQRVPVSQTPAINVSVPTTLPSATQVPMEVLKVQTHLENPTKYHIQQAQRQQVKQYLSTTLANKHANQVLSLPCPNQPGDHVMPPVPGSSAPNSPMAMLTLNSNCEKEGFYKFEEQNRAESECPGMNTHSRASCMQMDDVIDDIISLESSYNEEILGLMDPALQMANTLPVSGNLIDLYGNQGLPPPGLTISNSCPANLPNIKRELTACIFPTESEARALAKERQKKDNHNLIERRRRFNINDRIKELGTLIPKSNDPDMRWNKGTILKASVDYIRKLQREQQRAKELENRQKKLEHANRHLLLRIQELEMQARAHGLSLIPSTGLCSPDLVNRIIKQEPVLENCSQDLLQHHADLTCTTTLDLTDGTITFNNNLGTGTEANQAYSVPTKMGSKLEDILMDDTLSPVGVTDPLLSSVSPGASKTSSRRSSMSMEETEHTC

INS1 = assay: INS-1E survival protection against cytokine death – cell-based, luminescence, retest, dose response (AID 449756); type: functional; conditions: Rattus norvegicus;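 also: cell death triggered by IL-1 beta plus TNF-alpha plus IFN-gamma mixture; protective hits raise ATP signal compared with cytokine alone wells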
H9c2 = assay: cells; type: functional, cell-based; conditions: Rattus norvegicus, H9c2, Myocardium;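 also: confirmatory concentration-response retest of ultra-high-throughput screening hits for modulation of myocardial damage; cell death induced by hydrogen peroxide oxidative stress; compound pretreatment for 60 min then peroxide exposure for 2 h; potency is for protecting the cells against peroxide damage rather than for killing them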
[10] = reduction of Shn3 3'UTR-driven luciferase in osteoblasts – cell-based, Clone20 osteoblasts, firefly luciferase, cherry-picked, dose response (AID 624132); type: functional;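 also: firefly luciferase luminescence from reporter carrying the Shn3 3'UTR in osteoblasts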
[11] = loss of viability in HepG2 cells – cell-based, CellTiter-Glo, cherry-picked, cytotoxicity control for Shn3 inhibitor project, dose response (AID 624134); type: functional
[12] = non-specific 3'UTR reporter inhibition in Clone20-Shn3RL – cell-based, Renilla luciferase, cherry-picked, counter-screen for Shn3 inhibitor project, dose response (AID 624133); type: functional
[13] = M. tuberculosis H37Rv growth inhibitors, H37Rv strain (AID 1626); type: functional
[14] = viability of PTEN-deleted HCT116 cells – cell-based, HCT116 PTEN knockout, dose response (AID 1047); type: functional;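 also: HCT116 colon tumor cells with PTEN knocked out; cells exposed to compound for 60 hours before readout; potency for loss of cell viability measured by luminescence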
[15] = viability of HCT116 lacking mutant beta-catenin – cell-based, human colon tumor, dose response (AID 1045); type: functional;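 also: HCT116 colon tumor cells with beta catenin knocked out; cells exposed to compound for 60 hours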
[16] = target: T1, Heat shock factor protein 1; assay: enhancement of HSF1-driven luciferase signal – cell-based, NIH3T3, luminescence, dose retest, confirmation (AID 435004); type: functional;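 also: stress induced by proteasome inhibitor MG132 added 30 min after compound; luciferase reporter driven by HSF1 response element in NIH3T3 cells; actives raise luminescence as potentiators of the MG132 stress response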
[17] = target: FAD-linked sulfhydryl oxidase ALR (Homo sapiens, UniProt P55789); assay: ALR-catalysed DTT oxidation blockers – biochemical, H2O2 detection, luminescence, cherry-pick, dose response (AID 493248)
[18] = viability of uninfected HEp-2 cells – cell-based, HTS, cytotoxicity control for RSV inhibitor project, dose response (AID 2410); type: functional; conditions: human respiratory syncytial virus
[19] = target: Heat shock protein HSP 90-alpha (Homo sapiens, UniProt P07900); type: functional, organism-based

Sequence of Paired box protein Pax-8 (Q06710 whole entry): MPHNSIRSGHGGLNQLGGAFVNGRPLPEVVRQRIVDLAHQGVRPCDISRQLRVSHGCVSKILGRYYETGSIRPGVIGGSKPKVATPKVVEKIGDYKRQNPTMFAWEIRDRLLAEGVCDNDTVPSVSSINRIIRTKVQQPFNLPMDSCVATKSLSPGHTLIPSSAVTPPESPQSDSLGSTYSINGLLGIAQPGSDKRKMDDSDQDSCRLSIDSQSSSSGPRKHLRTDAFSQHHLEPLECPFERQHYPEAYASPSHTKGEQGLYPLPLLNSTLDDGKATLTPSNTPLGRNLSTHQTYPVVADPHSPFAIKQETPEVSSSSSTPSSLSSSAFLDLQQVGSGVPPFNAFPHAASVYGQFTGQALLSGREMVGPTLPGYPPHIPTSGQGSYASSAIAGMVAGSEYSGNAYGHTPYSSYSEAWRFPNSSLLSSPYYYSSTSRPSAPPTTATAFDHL
Sequence of FAD-linked sulfhydryl oxidase ALR (P55789 whole entry): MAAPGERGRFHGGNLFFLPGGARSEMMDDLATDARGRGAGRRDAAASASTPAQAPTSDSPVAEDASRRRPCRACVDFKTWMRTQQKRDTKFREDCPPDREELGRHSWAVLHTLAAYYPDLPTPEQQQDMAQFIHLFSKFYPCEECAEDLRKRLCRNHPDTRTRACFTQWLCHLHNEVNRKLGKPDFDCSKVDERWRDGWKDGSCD
Sequence of Nonstructural protein 1 (Q194T2 whole entry): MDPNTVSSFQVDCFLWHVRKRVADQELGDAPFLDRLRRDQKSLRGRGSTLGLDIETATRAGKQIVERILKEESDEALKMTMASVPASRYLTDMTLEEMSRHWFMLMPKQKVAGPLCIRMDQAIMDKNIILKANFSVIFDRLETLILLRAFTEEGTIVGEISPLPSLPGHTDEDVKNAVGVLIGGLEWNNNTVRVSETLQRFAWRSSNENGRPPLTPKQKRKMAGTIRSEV
Sequence of Albumin (P02769 whole entry): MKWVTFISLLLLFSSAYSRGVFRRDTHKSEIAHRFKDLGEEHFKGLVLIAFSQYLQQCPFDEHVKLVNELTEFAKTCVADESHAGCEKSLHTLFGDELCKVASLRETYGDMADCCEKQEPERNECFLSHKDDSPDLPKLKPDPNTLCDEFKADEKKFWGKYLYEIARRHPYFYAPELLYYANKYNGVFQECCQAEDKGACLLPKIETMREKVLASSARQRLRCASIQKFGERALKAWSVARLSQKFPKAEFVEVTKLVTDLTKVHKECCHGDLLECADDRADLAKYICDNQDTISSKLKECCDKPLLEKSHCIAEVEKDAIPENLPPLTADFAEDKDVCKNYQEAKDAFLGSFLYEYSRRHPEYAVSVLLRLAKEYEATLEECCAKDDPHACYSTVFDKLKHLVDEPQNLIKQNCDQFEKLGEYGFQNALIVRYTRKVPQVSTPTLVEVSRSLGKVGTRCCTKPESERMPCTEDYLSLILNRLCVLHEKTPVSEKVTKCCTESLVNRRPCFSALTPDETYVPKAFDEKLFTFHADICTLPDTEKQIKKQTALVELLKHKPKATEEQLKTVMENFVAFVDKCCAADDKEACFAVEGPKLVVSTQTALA
Sequence of Voltage-gated inwardly rectifying potassium channel KCNH2 (Q12809 whole entry): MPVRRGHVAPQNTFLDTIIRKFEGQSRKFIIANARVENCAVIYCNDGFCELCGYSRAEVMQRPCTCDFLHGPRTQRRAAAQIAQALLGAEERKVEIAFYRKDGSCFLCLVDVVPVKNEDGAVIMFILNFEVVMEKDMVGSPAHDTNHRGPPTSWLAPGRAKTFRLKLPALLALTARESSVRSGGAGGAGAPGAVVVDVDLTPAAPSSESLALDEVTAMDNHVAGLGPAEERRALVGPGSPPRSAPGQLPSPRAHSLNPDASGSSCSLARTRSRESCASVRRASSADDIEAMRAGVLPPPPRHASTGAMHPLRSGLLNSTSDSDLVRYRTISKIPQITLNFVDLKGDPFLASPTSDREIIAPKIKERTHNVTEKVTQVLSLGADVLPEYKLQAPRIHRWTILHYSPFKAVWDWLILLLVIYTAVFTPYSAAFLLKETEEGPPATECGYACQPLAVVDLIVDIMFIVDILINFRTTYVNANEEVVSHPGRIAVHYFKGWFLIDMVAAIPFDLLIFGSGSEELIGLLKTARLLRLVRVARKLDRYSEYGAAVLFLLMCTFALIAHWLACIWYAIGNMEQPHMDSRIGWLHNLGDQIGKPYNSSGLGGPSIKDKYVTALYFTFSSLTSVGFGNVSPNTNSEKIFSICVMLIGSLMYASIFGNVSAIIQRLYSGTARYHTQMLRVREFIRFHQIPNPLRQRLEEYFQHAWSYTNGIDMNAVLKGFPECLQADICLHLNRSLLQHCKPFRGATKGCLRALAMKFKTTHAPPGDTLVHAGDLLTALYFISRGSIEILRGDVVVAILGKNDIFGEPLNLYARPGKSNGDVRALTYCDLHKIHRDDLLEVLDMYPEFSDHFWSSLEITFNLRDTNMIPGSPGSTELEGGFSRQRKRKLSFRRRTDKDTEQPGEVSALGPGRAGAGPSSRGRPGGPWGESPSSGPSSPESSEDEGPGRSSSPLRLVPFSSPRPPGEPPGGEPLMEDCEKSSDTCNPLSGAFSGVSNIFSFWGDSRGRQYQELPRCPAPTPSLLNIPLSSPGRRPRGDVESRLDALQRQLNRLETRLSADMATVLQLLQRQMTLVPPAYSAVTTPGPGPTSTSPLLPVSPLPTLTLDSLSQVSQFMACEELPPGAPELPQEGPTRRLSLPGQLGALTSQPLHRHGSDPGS

Compound: CC1CCN(CC[C@H]2CCCN2S(=O)(=O)c2cccc(O)c2)CC1
- AC50 [1]: 22.4 µM (inconclusive)

Compound: COc1ccccc1C(=O)NNC(=O)c1ccc(NC(=O)CC(C)C)cc1
- IC50 (Albumin): > 94.1 µM (inactive)

Compound: O=C(Nc1cccc(Br)c1)c1ccc2c(c1)SC1=NS(=O)(=O)CCN12
- IC50 [2]: > 80 µM (inactive)
- AC50 (Paired box protein Pax-8): 3.32 µM (active)

Compound: OCCN(CCO)CC(O)COc1ccc(C23CC4CC(CC(C4)C2)C3)cc1 (centres undefined)
- EC50 [3]: 3.11 µM (active)
- AC50 [4]: 1.05 µM (active)
- AC50 (HEK293): 7.62 µM (active)

Compound: O=C(Nc1nc(-c2ccccn2)cs1)c1ccccc1-n1cnnn1
- EC50 (cells [5]): 10.6 µM (active)
- EC50 [6]: 1.93 µM (active)
- EC50 (cells [7]): 64.3 µM (active)
- EC50 [8]: 4.31 µM (active)
- IC50 (Nonstructural protein 1): 5.44 µM (active)
- AC50 [9]: 6.96 µM (active)
- AC50 (INS1): 1.3 µM (active)
- IC50 (H9c2): > 79 µM (inactive)
- AC50 [10]: 1.71 µM (active)
- AC50 [11]: 5.46 µM (active)
- AC50 [12]: 2.75 µM (active)

Compound: CC(=O)c1cn(CCOc2cc(C)ccc2C)c2ccccc12
- IC50 [2]: > 80 µM (inactive)
- AC50 (INS1): 3.62 µM (active)
- AC50 [10]: 1.18 µM (active)
- AC50 [11]: 2.19 µM (active)
- AC50 [12]: 2.03 µM (active)

Compound: O=C1CCNc2ccc(-c3ccccc3)cc21
- IC50 [13]: > 100 µM (active)

Compound: COc1cc(/C=C(\C#N)C(=O)NC2CCCCC2C)ccc1OS(=O)(=O)c1ccc(C)cc1 (centres undefined)
- IC50 [13]: > 100 µM (active)
- EC50 [14]: 10.7 µM (active)
- EC50 [15]: 9.24 µM (active)
- AC50 [4]: 5.32 µM (active)
- EC50 [16]: 2.17 µM (active)

Compound: CNC(=O)c1cc(Nc2nnc(-c3ccc(O)cc3)c3ccccc23)ccc1OC
- AC50 [17]: 3.86 µM (active)
- IC50 [2]: > 80 µM (inactive)

Compound: CC1CCCCC1NC(=O)/C(C#N)=C/c1ccccc1F (centres undefined)
- CC50 [18]: 21.3 µM (active)
- AC50 [4]: 5.53 µM (active)
- AC50 [9]: 14.4 µM (active)
- AC50 [19]: 0.94 µM (active)

Compound: N#Cc1ccccc1COc1ccc(/C=C/C(=O)O)cc1
- IC50 [2]: > 80 µM (inactive)

Compound: COC(=O)c1ccc(NC(=O)CSC2=NCCN2)cc1
- IC50 [13]: > 100 µM (active)

Compound: CCOc1ccc(N2C(=O)c3ccccc3C2=O)cc1
- IC50 [13]: > 100 µM (active)

Compound: Cc1cc(NC(=O)CCCN2C(=O)/C(=C/c3ccccc3Cl)SC2=S)no1
- IC50 [2]: > 80 µM (inactive)
